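How tested: cells in 96-well plates exposed to compound for 48 hours at five concentrations. Abbreviation: GI50, concentration required for 50% inhibition of growth. At the TGI there is no net growth.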
Tests used:
Experiment in all cases: DTP human tumour cell line panel, 48 h
U251 CNS = test system: U251 CNS
UO-31 renal = test system: UO-31 renal
SK-MEL-5 melanoma = test system: SK-MEL-5 melanoma
RPMI-8226 leukemia = test system: RPMI-8226 leukemia
A498 renal = test system: A498 renal
DU-145 prostate = test system: DU-145 prostate
M14 melanoma = test system: M14 melanoma
HOP-92 NSCLC = test system: HOP-92 NSCLC
T-47D breast = test system: T-47D breast
IGROV1 ovarian = test system: IGROV1 ovarian
TK-10 renal = test system: TK-10 renal
RXF 393 renal = test system: RXF 393 renal
SK-MEL-28 melanoma = test system: SK-MEL-28 melanoma
SNB-75 CNS = test system: SNB-75 CNS
SW-620 colon = test system: SW-620 colon
OVCAR-3 ovarian = test system: OVCAR-3 ovarian
HT29 colon = test system: HT29 colon
SR leukemia = test system: SR leukemia
HL-60(TB) leukemia = test system: HL-60(TB) leukemia
A549 NSCLC = test system: A549 NSCLC
MDA-MB-231 breast = test system: MDA-MB-231 breast
SF-539 CNS = test system: SF-539 CNS
HCT-15 colon = test system: HCT-15 colon
PC-3 prostate = test system: PC-3 prostate
SK-OV-3 ovarian = test system: SK-OV-3 ovarian
MALME-3M melanoma = test system: MALME-3M melanoma
OVCAR-5 ovarian = test system: OVCAR-5 ovarian
HCC-2998 colon = test system: HCC-2998 colon
KM12 colon = test system: KM12 colon
SF-268 CNS = test system: SF-268 CNS
SF-295 CNS = test system: SF-295 CNS
LOX IMVI melanoma = test system: LOX IMVI melanoma
HCT-116 colon = test system: HCT-116 colon
NCI-H226 lung = test system: NCI-H226 lung
UACC-257 melanoma = test system: UACC-257 melanoma
MOLT-4 leukemia = test system: MOLT-4 leukemia
786-0 renal = test system: 786-0 renal
K-562 leukemia = test system: K-562 leukemia
OVCAR-8 ovarian = test system: OVCAR-8 ovarian
NCI/ADR-RES ovarian = test system: NCI/ADR-RES ovarian
ACHN renal = test system: ACHN renal
SN12C renal = test system: SN12C renal
CAKI-1 renal = test system: CAKI-1 renal
OVCAR-4 ovarian = test system: OVCAR-4 ovarian
BT-549 breast = test system: BT-549 breast
MDA-MB-435 = test system: MDA-MB-435
HS 578T breast = test system: HS 578T breast
SNB-19 CNS = test system: SNB-19 CNS
MCF7 breast = test system: MCF7 breast
SK-MEL-2 melanoma = test system: SK-MEL-2 melanoma
EKVX NSCLC = test system: EKVX NSCLC
HOP-62 NSCLC = test system: HOP-62 NSCLC
UACC-62 melanoma = test system: UACC-62 melanoma
NCI-H522 lung = test system: NCI-H522 lung
CCRF-CEM leukemia = test system: CCRF-CEM leukemia
NCI-H460 lung = test system: NCI-H460 lung
NCI-H23 lung = test system: NCI-H23 lung
COLO 205 colon = test system: COLO 205 colon

CCCCC(SC(=S)N1CCCC1)C(=O)Nc1nc(CC(=O)OCC)cs1 (stereo not drawn)
GI50 (U251 CNS): 53.8 µM
TGI (U251 CNS): > 100 µM
GI50 (UO-31 renal): 36.9 µM
TGI (UO-31 renal): > 100 µM
GI50 (SK-MEL-5 melanoma): 13.1 µM
TGI (SK-MEL-5 melanoma): 45.6 µM
GI50 (RPMI-8226 leukemia): 10.6 µM
TGI (RPMI-8226 leukemia): 90.9 µM
GI50 (A498 renal): 64.6 µM
TGI (A498 renal): > 100 µM
GI50 (DU-145 prostate): 67.3 µM
TGI (DU-145 prostate): > 100 µM
GI50 (M14 melanoma): 32.9 µM
TGI (M14 melanoma): > 100 µM
GI50 (HOP-92 NSCLC): 36.6 µM
TGI (HOP-92 NSCLC): > 100 µM
GI50 (T-47D breast): 30.5 µM
TGI (T-47D breast): > 100 µM
GI50 (IGROV1 ovarian): 7.98 µM
TGI (IGROV1 ovarian): > 100 µM
GI50 (TK-10 renal): > 100 µM
TGI (TK-10 renal): > 100 µM
GI50 (RXF 393 renal): 41.7 µM
TGI (RXF 393 renal): > 100 µM
GI50 (SK-MEL-28 melanoma): 67.4 µM
TGI (SK-MEL-28 melanoma): > 100 µM
GI50 (SNB-75 CNS): > 100 µM
TGI (SNB-75 CNS): > 100 µM
GI50 (SW-620 colon): 68.6 µM
TGI (SW-620 colon): > 100 µM
GI50 (OVCAR-3 ovarian): 9.52 µM
TGI (OVCAR-3 ovarian): > 100 µM
GI50 (HT29 colon): 21.8 µM
TGI (HT29 colon): > 100 µM
GI50 (SR leukemia): 4.83 µM
TGI (SR leukemia): > 100 µM
GI50 (HL-60(TB) leukemia): 25 µM
TGI (HL-60(TB) leukemia): > 100 µM
GI50 (A549 NSCLC): 31.7 µM
TGI (A549 NSCLC): > 100 µM
GI50 (MDA-MB-231 breast): > 100 µM
TGI (MDA-MB-231 breast): > 100 µM
GI50 (SF-539 CNS): 72.4 µM
TGI (SF-539 CNS): > 100 µM
GI50 (HCT-15 colon): 66.1 µM
TGI (HCT-15 colon): > 100 µM
GI50 (PC-3 prostate): 0.985 µM
TGI (PC-3 prostate): > 100 µM
GI50 (SK-OV-3 ovarian): 97.4 µM
TGI (SK-OV-3 ovarian): > 100 µM
GI50 (MALME-3M melanoma): > 100 µM
TGI (MALME-3M melanoma): > 100 µM
GI50 (OVCAR-5 ovarian): 37.2 µM
TGI (OVCAR-5 ovarian): > 100 µM
GI50 (HCC-2998 colon): 99.5 µM
TGI (HCC-2998 colon): > 100 µM
GI50 (KM12 colon): 45.3 µM
TGI (KM12 colon): > 100 µM
GI50 (SF-268 CNS): 37.5 µM
TGI (SF-268 CNS): > 100 µM
GI50 (SF-295 CNS): 47.3 µM
TGI (SF-295 CNS): > 100 µM
GI50 (LOX IMVI melanoma): 36.1 µM
TGI (LOX IMVI melanoma): > 100 µM
GI50 (HCT-116 colon): 28.9 µM
TGI (HCT-116 colon): > 100 µM
GI50 (NCI-H226 lung): 71 µM
TGI (NCI-H226 lung): > 100 µM
GI50 (UACC-257 melanoma): 47.9 µM
TGI (UACC-257 melanoma): > 100 µM
GI50 (MOLT-4 leukemia): 1.91 µM
TGI (MOLT-4 leukemia): > 100 µM
GI50 (786-0 renal): 62.2 µM
TGI (786-0 renal): > 100 µM
GI50 (K-562 leukemia): 15.6 µM
TGI (K-562 leukemia): > 100 µM
GI50 (OVCAR-8 ovarian): 40.1 µM
TGI (OVCAR-8 ovarian): > 100 µM
GI50 (NCI/ADR-RES ovarian): 37.6 µM
TGI (NCI/ADR-RES ovarian): > 100 µM
GI50 (ACHN renal): 59.3 µM
TGI (ACHN renal): > 100 µM
GI50 (SN12C renal): 85.2 µM
TGI (SN12C renal): > 100 µM
GI50 (CAKI-1 renal): > 100 µM
TGI (CAKI-1 renal): > 100 µM
GI50 (OVCAR-4 ovarian): 43.4 µM
TGI (OVCAR-4 ovarian): > 100 µM
GI50 (BT-549 breast): 59.7 µM
TGI (BT-549 breast): > 100 µM
GI50 (MDA-MB-435): 35.4 µM
TGI (MDA-MB-435): > 100 µM
GI50 (HS 578T breast): > 100 µM
TGI (HS 578T breast): > 100 µM
GI50 (SNB-19 CNS): 65.1 µM
TGI (SNB-19 CNS): > 100 µM
GI50 (MCF7 breast): 1.25 µM
TGI (MCF7 breast): > 100 µM
GI50 (SK-MEL-2 melanoma): 36.1 µM
TGI (SK-MEL-2 melanoma): > 100 µM
GI50 (EKVX NSCLC): 56.4 µM
TGI (EKVX NSCLC): > 100 µM
GI50 (HOP-62 NSCLC): > 100 µM
TGI (HOP-62 NSCLC): > 100 µM
GI50 (UACC-62 melanoma): 76.4 µM
TGI (UACC-62 melanoma): > 100 µM
GI50 (NCI-H522 lung): 6.87 µM
TGI (NCI-H522 lung): > 100 µM

Cn1nc2ccc(Nc3cc(=O)[nH]c4ccc5nn(C)nc5c34)cc2n1
TGI (U251 CNS): > 100 µM
TGI (UO-31 renal): > 100 µM
TGI (SK-MEL-5 melanoma): > 100 µM
TGI (A498 renal): > 100 µM
TGI (DU-145 prostate): > 100 µM
TGI (M14 melanoma): > 100 µM
TGI (HOP-92 NSCLC): > 100 µM
TGI (T-47D breast): > 100 µM
TGI (IGROV1 ovarian): > 100 µM
TGI (TK-10 renal): > 100 µM
TGI (RXF 393 renal): > 100 µM
TGI (SK-MEL-28 melanoma): > 100 µM
TGI (SNB-75 CNS): > 100 µM
TGI (SW-620 colon): > 100 µM
TGI (OVCAR-3 ovarian): > 100 µM
TGI (HT29 colon): > 100 µM
TGI (SR leukemia): > 100 µM
TGI (A549 NSCLC): > 100 µM
TGI (MDA-MB-231 breast): > 100 µM
TGI (SF-539 CNS): > 100 µM
TGI (HCT-15 colon): > 100 µM
TGI (PC-3 prostate): > 100 µM
TGI (SK-OV-3 ovarian): > 100 µM
TGI (MALME-3M melanoma): > 100 µM
TGI (OVCAR-5 ovarian): > 100 µM
TGI (HCC-2998 colon): > 100 µM
TGI (KM12 colon): > 100 µM
TGI (SF-268 CNS): > 100 µM
TGI (CCRF-CEM leukemia): > 100 µM
TGI (SF-295 CNS): > 100 µM
TGI (NCI-H460 lung): > 100 µM
TGI (HCT-116 colon): > 100 µM
TGI (NCI-H226 lung): > 100 µM
TGI (UACC-257 melanoma): > 100 µM
TGI (MOLT-4 leukemia): > 100 µM
TGI (786-0 renal): > 100 µM
TGI (K-562 leukemia): > 100 µM
TGI (OVCAR-8 ovarian): > 100 µM
TGI (NCI/ADR-RES ovarian): > 100 µM
TGI (ACHN renal): > 100 µM
TGI (SN12C renal): > 100 µM
TGI (CAKI-1 renal): > 100 µM
TGI (OVCAR-4 ovarian): > 100 µM
TGI (BT-549 breast): > 100 µM
TGI (MDA-MB-435): > 100 µM
TGI (NCI-H23 lung): > 100 µM
TGI (HS 578T breast): > 100 µM
TGI (SNB-19 CNS): > 100 µM
TGI (MCF7 breast): > 100 µM
TGI (SK-MEL-2 melanoma): > 100 µM
TGI (EKVX NSCLC): > 100 µM
TGI (HOP-62 NSCLC): > 100 µM
TGI (UACC-62 melanoma): > 100 µM
TGI (NCI-H522 lung): > 100 µM
TGI (COLO 205 colon): > 100 µM

Source: PubChem BioAssay (NCI)
